From patent publication US20260274895A1, “DE NOVO DESIGNED MEMBRANE-TRAVERSING AND ORALLY BIOAVAILABLE MACROCYCLES” (UNIVERSITY OF WASHINGTON, priority 2022, published 2026)
Where a SMILES comes first, the peptide text is derived from it. [ ]: non-standard residue; d: D form. NMeF = CN[C@@H](Cc1ccccc1)C(=O)O; dNMeF = CN[C@H](Cc1ccccc1)C(=O)O; NMeL = CN[C@@H](CC(C)C)C(=O)O; dNMeL = CN[C@H](CC(C)C)C(=O)O; NMeV = CN[C@H](C(=O)O)C(C)C; NMeA = CN[C@@H](C)C(=O)O; dNMeA = CN[C@H](C)C(=O)O

Settings: PAMPA, PAMPA_Papp_Avg (apparent permeability)

Compound | Papp [×10⁻⁶ cm/s]
CC(C)C[C@@H]1C(=O)N[C@H](CC(C)C)C(=O)N2CCC[C@@H]2C(=O)N2CCC[C@@H]2C(=O)N(C)[C@@H](CC(C)C)C(=O)N[C@H](CC(C)C)C(=O)N2CCC[C@@H]2C(=O)N2CCC[C@H]2C(=O)N1C [Design D8.32, pp*LlpP*ll] (cyclo([dNMeL][dL][dP][dP][NMeL][dL][dP]P)) | 5.23
CC[C@@H](C)[C@H]1NC(=O)[C@H]2CCCN2C(=O)[C@@H]2CCCN2C(=O)[C@@H]([C@H](C)CC)NC(=O)[C@@H](Cc2ccccc2)NC(=O)[C@@H](Cc2ccccc2)N(C)C(=O)[C@@H]2CCCN2C(=O)[C@@H](C(C)C)NC1=O [Design D8.33, fiPpivP*f] (cyclo(P[dNMeF][dF][dI]P[dP][dI][dV])) | 6
CC[C@H](C)[C@@H]1NC(=O)[C@@H](C)N(C)C(=O)[C@@H](C)N(C)C(=O)[C@@H]2CCCN2C(=O)[C@H](CC(C)C)NC(=O)[C@H](CC(C)C)NC(=O)[C@@H](CC(C)C)NC(=O)[C@@H]2CCCN2C(=O)[C@H]2CCCN2C1=O [Design D9.11, PlLLP*a*aIp] (cyclo([dL]LLP[dNMeA][dNMeA]I[dP]P)) | 0.316
CC[C@H](C)[C@@H]1NC(=O)[C@@H](CC(C)C)NC(=O)[C@@H]2CCCN2C(=O)[C@@H]2CCCN2C(=O)[C@@H](CC(C)C)NC(=O)[C@@H]2CCCN2C(=O)[C@H]2CCCN2C(=O)[C@@H](C(C)C)NC(=O)[C@@H](C)N(C)C1=O [Design D9.14, PlI*avpPlP] (cyclo([dL]PP[dL]I[dNMeA][dV][dP]P)) | 0.421
CC[C@H](C)[C@@H]1NC(=O)[C@@H](C)NC(=O)[C@@H]2CCCN2C(=O)[C@H]2CCCN2C(=O)[C@@H]2CCCN2C(=O)[C@@H](C)NC(=O)[C@@H](Cc2ccccc2)NC(=O)[C@@H](CC(C)C)N(C)C(=O)[C@@H](CC(C)C)N(C)C1=O [Design D9.15, PpPaI*l*lfa] (cyclo([dA]I[dNMeL][dNMeL][dF][dA]P[dP]P)) | 0.341
CC[C@@H](C)[C@H]1NC(=O)[C@H]2CCCN2C(=O)[C@@H](C)NC(=O)[C@@H](CC(C)C)N(C)C(=O)[C@H]([C@@H](C)CC)NC(=O)[C@@H](C(C)C)NC(=O)[C@@H](CC(C)C)N(C)C(=O)[C@@H]2CCCN2C(=O)[C@@H]2CCCN2C1=O [Design D9.26, piPP*lvI*la] (cyclo(I[dNMeL][dA][dP][dI]PP[dNMeL][dV])) | 1.99
CSCC[C@@H]1NC(=O)[C@@H](C)N(C)C(=O)[C@@H]2CCCN2C(=O)[C@@H](CC(C)C)NC(=O)[C@H](CC(C)C)N(C)C(=O)[C@H]2CCCN2C(=O)[C@H](CC(C)C)NC(=O)[C@@H](CC(C)C)NC(=O)[C@@H](C)NC1=O [Design D9.28, lLp*LlP*aMa] (cyclo(L[dP][NMeL][dL]P[dNMeA]M[dA][dL])) | 1.57
CC(C)C[C@@H]1C(=O)N[C@H](C)C(=O)N[C@@H](C(C)C)C(=O)N2CCC[C@@H]2C(=O)N[C@H](C(C)C)C(=O)N2CCC[C@@H]2C(=O)N2CCC[C@H]2C(=O)N[C@H](C)C(=O)N(C)[C@H](CC(C)C)C(=O)N1C [Design D9.29, vpPa*l*laVp] (cyclo([dA][dNMeL][dNMeL][dA]V[dP][dV][dP]P)) | 0.664
CC[C@@H](C)[C@H]1NC(=O)[C@H](CC(C)C)NC(=O)[C@@H](C)N(C)C(=O)[C@@H]2CCCN2C(=O)[C@H](C)NC(=O)[C@@H](CC(C)C)NC(=O)[C@H]2CCCN2C(=O)[C@H](C(C)C)NC(=O)[C@@H](CC(C)C)N(C)C1=O [Design D9.30, plAP*aLi*lV] (cyclo(AP[dNMeA]L[dI][dNMeL]V[dP][dL])) | 1.6
CC[C@@H](C)[C@H]1NC(=O)[C@H](Cc2ccccc2)NC(=O)[C@@H](C)NC(=O)[C@@H](CC(C)C)N(C)C(=O)[C@@H]2CCCN2C(=O)[C@H](C)NC(=O)[C@H]2CCCN2C(=O)[C@@H]2CCCN2C(=O)[C@@H](Cc2ccccc2)NC1=O [Design D9.41, PpAP*laFif] (cyclo(AP[dNMeL][dA]F[dI][dF]P[dP])) | 1.02
CC[C@H](C)[C@@H]1NC(=O)[C@@H](C(C)C)NC(=O)[C@@H]2CCCN2C(=O)[C@@H](CC(C)C)N(C)C(=O)[C@@H](C(C)C)NC(=O)[C@H](CC(C)C)N(C)C(=O)[C@H]2CCCN2C(=O)[C@@H](C)NC(=O)[C@H](Cc2ccccc2)N(C)C(=O)[C@H]2CCCN2C1=O [Design D10.3., Ip*Fap*Lv*lPv] (cyclo(I[dP][NMeF][dA][dP][NMeL][dV][dNMeL]P[dV])) | 2.52
CC(C)C[C@@H]1C(=O)N2CCC[C@@H]2C(=O)N(C)[C@@H](C(C)C)C(=O)N[C@@H](C(C)C)C(=O)N2CCC[C@H]2C(=O)N2CCC[C@@H]2C(=O)N[C@@H](C)C(=O)N[C@H](C(C)C)C(=O)N(C)[C@@H](CC(C)C)C(=O)N[C@@H](C)C(=O)N1C [Design D10.6, PpAv*LA*lp*VV] (cyclo(A[dNMeL][dP][NMeV]VP[dP]A[dV][NMeL])) | 0.509
CC[C@@H](C)[C@H]1NC(=O)[C@H](CC(C)C)N(C)C(=O)[C@H]2CCCN2C(=O)[C@H](CC(C)C)NC(=O)[C@H](Cc2ccccc2)N(C)C(=O)[C@H](CC(C)C)N(C)C(=O)[C@@H](C(C)C)NC(=O)[C@H](C)NC(=O)[C@H]2CCCN2C(=O)[C@@H]2CCCN2C1=O [Design D10.17, *L*FLp*LiPpAv] (cyclo(A[dV][NMeL][NMeF]L[dP][NMeL][dI]P[dP])) | 2.69
CC[C@@H](C)[C@H]1NC(=O)[C@H](C(C)C)NC(=O)[C@H]2CCCN2C(=O)[C@@H]2CCCN2C(=O)[C@H](CC(C)C)N(C)C(=O)[C@H](C)N(C)C(=O)[C@@H](CC(C)C)N(C)C(=O)[C@H](C)NC(=O)[C@@H](Cc2ccccc2)NC(=O)[C@@H]2CCCN2C1=O [Design D10.25, fA*l*A*LPpViP] (cyclo(A[dNMeL][NMeA][NMeL]P[dP]V[dI]P[dF])) | 0.756
CC[C@@H](C)[C@H]1NC(=O)[C@@H]2CCCN2C(=O)[C@@H](Cc2ccccc2)NC(=O)[C@H](CC(C)C)N(C)C(=O)[C@H](C)NC(=O)[C@H]2CCCN2C(=O)[C@@H]2CCCN2C(=O)[C@H](CC(C)C)NC(=O)[C@H](CC(C)C)N(C)C(=O)[C@H](C)N(C)C1=O [Design D10.26, Pi*A*LLPpA*Lf] (cyclo(A[NMeL][dF]P[dI][NMeA][NMeL]LP[dP])) | 0.808
CC(C)C[C@H]1NC(=O)[C@H](CC(C)C)N(C)C(=O)[C@@H](Cc2ccccc2)NC(=O)[C@@H](C)N(C)C(=O)[C@@H]2CCCN2C(=O)[C@H](C(C)C)NC(=O)[C@H](CC(C)C)N(C)C(=O)[C@@H](C)NC(=O)[C@@H]2CCCN2C(=O)[C@H]2CCCN2C1=O [Design D10.32, P*af*LlpPa*LV] (cyclo([dA][NMeL]VP[dNMeA][dF][NMeL][dL][dP]P)) | 1.86
CSCC[C@@H]1NC(=O)[C@H](CC(C)C)NC(=O)[C@@H]2CCCN2C(=O)[C@H]2CCCN2C(=O)[C@@H](C)NC(=O)[C@H]2CCCN2C(=O)[C@@H](CC(C)C)NC(=O)[C@@H](C)N(C)C(=O)[C@H](CC(C)C)N(C)C(=O)[C@@H](C)N(C)C1=O [Design D10.40, M*a*L*alpapPL] (cyclo(LM[dNMeA][NMeL][dNMeA][dL][dP][dA][dP]P)) | 0.34
CC[C@@H](C)[C@H]1NC(=O)[C@@H](CC(C)C)NC(=O)[C@@H](CC(C)C)NC(=O)[C@H]2CCCN2C(=O)[C@H](CC(C)C)N(C)C(=O)[C@@H](C)N(C)C(=O)[C@@H]2CCCN2C(=O)[C@@H]([C@H](C)CC)NC(=O)[C@@H](C(C)C)NC(=O)[C@@H]2CCCN2C1=O [Design D10.46, PviP*a*Lplli] (cyclo([NMeL][dP][dL][dL][dI]P[dV][dI]P[dNMeA])) | 0.388
